# Reference: ChEMBL document CHEMBL3885881, “DrugMatrix”
# “And” between values parts separate entries of the source, which are not always exact repeats. Equal entries are not always repeated.
# Organism: Rattus norvegicus
# Experiment: DrugMatrix - Regimen: Daily Repeat
# Type: toxicity, organism-based, Sprague-Dawley
# Set-up: regimen Daily Repeat, gender Male, age 6-8 weeks
# Conditions: in vivo, vehicle 100 % SALINE
# [1] = iv, 15 mg/kg, 72 h, tissue Plasma, dose level High, time 3 day
# [2] = iv, 15 mg/kg, 120 h, tissue Blood, dose level High, time 5 day
# [3] = iv, 15 mg/kg, 120 h, tissue Plasma, dose level High, time 5 day
# [4] = sc, 0 mg/kg, 72 h, tissue Blood, route mini-PUMP - SUBCUTANEOUS, dose level Control, time 3 day
# [5] = sc, 0 mg/kg, 72 h, tissue Plasma, route mini-PUMP - SUBCUTANEOUS, dose level Control, time 3 day
# [6] = sc, 0 mg/kg, 120 h, tissue Blood, route mini-PUMP - SUBCUTANEOUS, dose level Control, time 5 day
# [7] = sc, 0 mg/kg, 120 h, tissue Plasma, route mini-PUMP - SUBCUTANEOUS, dose level Control, time 5 day
smiles,measurement,setting,value
CC(C)NCC(O)c1ccc(O)c(O)c1 (stereo not given) [ISOPROTERENOL],POTASSIUM,[1],6.86 MEQ/L
same,SODIUM,[1],146.03 MEQ/L
same,TOTAL BILIRUBIN,[1],0.13 mg/dL
same,TOTAL PROTEIN,[1],5.8 G/DL
same,URIC ACID,[1],1.53 mg/dL
same,ABSOLUTE BASOPHIL,[2],0 CELLS/uL
same,ABSOLUTE EOSINOPHIL,[2],89.33 CELLS/uL
same,ABSOLUTE LYMPHOCYTE,[2],14556.33 CELLS/uL
same,ABSOLUTE MONOCYTE,[2],270.67 CELLS/uL
same,ABSOLUTE SEGMENTED NEUTROPHIL,[2],850.33 CELLS/uL
same,BASOPHIL,[2],0%
same,EOSINOPHIL,[2],0.67%
same,ERYTHROCYTE COUNT,[2],5.8 x10E6/uL
same,HEMATOCRIT,[2],37.17%
same,HEMOGLOBIN,[2],13.6 G/DL
same,LEUKOCYTE COUNT,[2],15.77 x10E3/uL
same,LYMPHOCYTE,[2],92%
same,MEAN CORPUSCULAR HEMOGLOBIN,[2],23.53 pg
same,MEAN CORPUSCULAR HEMOGLOBIN CONCENTRATION,[2],36.7 G/DL
same,MEAN CORPUSCULAR VOLUME,[2],64.07 fL
same,MONOCYTE,[2],1.67%
same,NEUTROPHIL,[2],5.67%
same,NUCLEATED RED BLOOD CELLS,[2],0 /100WBC
same,PLATELET COUNT,[2],1301.33 x10E3/uL
same,ALANINE AMINOTRANSFERASE,[3],56 u/L
same,ALBUMIN,[3],4.03 G/DL
same,ALKALINE PHOSPHATASE,[3],369.67 u/L
same,ASPARTATE AMINOTRANSFERASE,[3],62.33 u/L
same,BLOOD UREA NITROGEN,[3],14.33 mg/dL
same,CARBON DIOXIDE,[3],30.33 mmol/L
same,CHLORIDE,[3],103.67 MEQ/L
same,CHOLESTEROL,[3],65.67 mg/dL
same,CREATINE PHOSPHOKINASE,[3],190.67 u/L
same,CREATININE,[3],0.23 mg/dL
same,GLUCOSE,[3],141 mg/dL
same,LACTATE DEHYDROGENASE,[3],80 u/L
same,LIPASE,[3],9 u/L
same,PHOSPHORUS,[3],11.63 mg/dL
same,POTASSIUM,[3],6.67 MEQ/L
same,SODIUM,[3],146.27 MEQ/L
same,TOTAL BILIRUBIN,[3],0.2 mg/dL
same,TOTAL PROTEIN,[3],6.13 G/DL
same,URIC ACID,[3],1.43 mg/dL
same,ABSOLUTE SEGMENTED NEUTROPHIL,[4],1658.33 CELLS/uL
same,BASOPHIL,[4],0.3% and 0%
same,EOSINOPHIL,[4],0.43% and 0.5%
same,ERYTHROCYTE COUNT,[4],6.91 x10E6/uL and 6.27 x10E6/uL
same,HEMATOCRIT,[4],45.43% and 36.95%
same,HEMOGLOBIN,[4],14.37 G/DL and 13.4 G/DL
same,LEUKOCYTE COUNT,[4],12.09 x10E3/uL and 16.38 x10E3/uL
same,LYMPHOCYTE,[4],81.73% and 87.17%
same,MEAN CORPUSCULAR HEMOGLOBIN,[4],20.8 pg and 21.42 pg
same,MEAN CORPUSCULAR HEMOGLOBIN CONCENTRATION,[4],31.67 G/DL and 36.27 G/DL
same,MEAN CORPUSCULAR VOLUME,[4],65.83 fL and 59.03 fL
same,MONOCYTE,[4],1.83% and 2%
same,NEUTROPHIL,[4],15.07% and 10.33%
same,NUCLEATED RED BLOOD CELLS,[4],0 /100WBC
same,PLATELET COUNT,[4],1299.67 x10E3/uL and 904.67 x10E3/uL
same,ALANINE AMINOTRANSFERASE,[5],34.33 u/L and 48.33 u/L
same,ALBUMIN,[5],3.83 G/DL and 3.82 G/DL
same,ALKALINE PHOSPHATASE,[5],333.67 u/L and 282.33 u/L
same,ASPARTATE AMINOTRANSFERASE,[5],68 u/L and 86.83 u/L
same,BLOOD UREA NITROGEN,[5],19.33 mg/dL and 20.17 mg/dL
same,CARBON DIOXIDE,[5],43 mmol/L and 34.67 mmol/L
same,CHLORIDE,[5],103.67 MEQ/L and 102 MEQ/L
same,CHOLESTEROL,[5],84.33 mg/dL and 71.5 mg/dL
same,CREATINE PHOSPHOKINASE,[5],334.33 u/L
same,CREATININE,[5],0.53 mg/dL and 0.2 mg/dL
same,GLUCOSE,[5],156.67 mg/dL and 136.83 mg/dL
same,LACTATE DEHYDROGENASE,[5],159 u/L
same,PHOSPHORUS,[5],9.8 mg/dL and 10.12 mg/dL
same,POTASSIUM,[5],5.93 MEQ/L and 5.92 MEQ/L
same,SODIUM,[5],146.33 MEQ/L and 147.8 MEQ/L
same,TOTAL BILIRUBIN,[5],0.37 mg/dL and 0.2 mg/dL
same,TOTAL PROTEIN,[5],6.4 G/DL and 6.05 G/DL
same,URIC ACID,[5],0.73 mg/dL and 1.4 mg/dL
same,ABSOLUTE SEGMENTED NEUTROPHIL,[6],3216.67 CELLS/uL
same,BASOPHIL,[6],0.2% and 0%
same,EOSINOPHIL,[6],0.33% and 0%
same,ERYTHROCYTE COUNT,[6],6.81 x10E6/uL and 6.11 x10E6/uL
same,HEMATOCRIT,[6],44.33% and 36.22%
same,HEMOGLOBIN,[6],13.77 G/DL and 13.18 G/DL
same,LEUKOCYTE COUNT,[6],11.2 x10E3/uL and 17.8 x10E3/uL
same,LYMPHOCYTE,[6],80.33% and 80.5%
same,MEAN CORPUSCULAR HEMOGLOBIN,[6],20.23 pg and 21.62 pg
same,MEAN CORPUSCULAR HEMOGLOBIN CONCENTRATION,[6],31.03 G/DL and 36.42 G/DL
same,MEAN CORPUSCULAR VOLUME,[6],65.1 fL and 59.37 fL
same,MONOCYTE,[6],2.1% and 1.83%
same,NEUTROPHIL,[6],16.43% and 17.67%
same,NUCLEATED RED BLOOD CELLS,[6],0 /100WBC
same,PLATELET COUNT,[6],1573.33 x10E3/uL and 1311 x10E3/uL
same,ALANINE AMINOTRANSFERASE,[7],38 u/L and 47 u/L
same,ALBUMIN,[7],3.87 G/DL and 3.83 G/DL
same,ALKALINE PHOSPHATASE,[7],303.67 u/L and 260.33 u/L
same,ASPARTATE AMINOTRANSFERASE,[7],72.67 u/L and 76.17 u/L
same,BLOOD UREA NITROGEN,[7],17.33 mg/dL and 14.67 mg/dL
same,CARBON DIOXIDE,[7],41.33 mmol/L and 31.33 mmol/L
same,CHLORIDE,[7],104.33 MEQ/L and 101.17 MEQ/L
same,CHOLESTEROL,[7],74.33 mg/dL and 75 mg/dL
same,CREATINE PHOSPHOKINASE,[7],286.67 u/L
same,CREATININE,[7],0.47 mg/dL and 0.16 mg/dL
same,GLUCOSE,[7],152.33 mg/dL and 152.67 mg/dL
same,LACTATE DEHYDROGENASE,[7],147.33 u/L
same,PHOSPHORUS,[7],10 mg/dL and 10.97 mg/dL
same,POTASSIUM,[7],6.4 MEQ/L and 6 MEQ/L
same,SODIUM,[7],146 MEQ/L and 145.52 MEQ/L
same,TOTAL BILIRUBIN,[7],0.43 mg/dL and 0.17 mg/dL
same,TOTAL PROTEIN,[7],6.27 G/DL and 5.83 G/DL
same,URIC ACID,[7],0.83 mg/dL and 1.27 mg/dL
same,ABSOLUTE SEGMENTED NEUTROPHIL,"sc, 0 mg/kg, […], tissue Blood, route mini-PUMP - SUBCUTANEOUS, dose level Control, time 14 day",2414 CELLS/uL
